Reference: patent US11999727B2 (Tango Therapeutics, Inc., priority 2020, dated 2024)

Assays:
[1] = test system: HAP1 MTAP-deleted cell line; assay: SDMA in-cell western assay, HAP1 MTAP-deleted; format: cell-based; conditions: for IC50: Homo sapiens, HAP1, SDMA in-cell western, HAP1 MTAP-deleted; for MTAP intact/deleted ratio: SDMA in-cell western
Summary of the method: (§1)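 IC50 values come from SDMA signal quantified by in-cell western in two HAP1 lines, one with native MTAP levels and one lacking MTAP.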

PRMT5 [2] = biological target: T1, PRMT5 (Homo sapiens, UniProt O14744); assay: PRMT5 biochemical IC50 assay with SAM as cofactor; conditions: PRMT5, SAM as cofactor; read-out: SAM IC50
T1 construct: purchased Viva (custom protein)

[3] = test system: HAP1 MTAP-deleted cell line; assay: Viability assay, MTAP-deleted cell line; format: cell-based; conditions: Homo sapiens, read-out: HAP1 MTAP deleted viability
Description: Table 1 additionally indicates IC50 values in a viability assay for the MTAP-deleted cell line (column 10), indicating the effect of treatment with compound on cell survival.

PRMT5 [4] = biological target: T1, PRMT5; assay: PRMT5 biochemical IC50 assay with no cofactor; conditions: PRMT5, no cofactor
Description: Table 1 indicates IC50 values (μM) against PRMT5 for exemplary compounds in the presence of SAM as cofactor, with no cofactor, and with MTA as cofactor, respectively (columns 4-6). […] Ki values can be calculated from the IC50 values as described in the Examples section. As detailed in the Examples section, for the assay performed in the presence of SAM, IC50=Ki×1.5 (Ki=IC50/1.5).

PRMT5 [5] = biological target: T1, PRMT5; assay: PRMT5 biochemical IC50 assay with MTA as cofactor; conditions: PRMT5, MTA as cofactor; read-out: MTA IC50
[6] = test system: HAP1 MTAP-intact cell line; assay: SDMA in-cell western assay, HAP1 MTAP-intact; format: cell-based; conditions: Homo sapiens, HAP1, SDMA in-cell western, HAP1 MTAP-intact; read-out: MTAP HAP1 intact IC50
Summary of the method: as §1

[7] = read-out: HAP 1 MTAP deleted IC50
[8] = IC50 ratio HAP1 MTAP-intact / HAP1 MTAP-deleted
[9] = HAP1, viability assay, MTAP-deleted cell line
[10] = read-out: No Cofactor/ rel IC50
[11] = read-out: HAP1 MTAP deleted IC50
[12] = IC50 ratio HAP1 MTAP-intact vs HAP1 MTAP-deleted
[13] = HAP1, viability IC50, MTAP-deleted cell line
[14] = HAP1, viability, HAP1 MTAP-deleted cell line
[15] = HAP1, viability assay, HAP1 MTAP-deleted

T1 sequence (O14744 whole entry): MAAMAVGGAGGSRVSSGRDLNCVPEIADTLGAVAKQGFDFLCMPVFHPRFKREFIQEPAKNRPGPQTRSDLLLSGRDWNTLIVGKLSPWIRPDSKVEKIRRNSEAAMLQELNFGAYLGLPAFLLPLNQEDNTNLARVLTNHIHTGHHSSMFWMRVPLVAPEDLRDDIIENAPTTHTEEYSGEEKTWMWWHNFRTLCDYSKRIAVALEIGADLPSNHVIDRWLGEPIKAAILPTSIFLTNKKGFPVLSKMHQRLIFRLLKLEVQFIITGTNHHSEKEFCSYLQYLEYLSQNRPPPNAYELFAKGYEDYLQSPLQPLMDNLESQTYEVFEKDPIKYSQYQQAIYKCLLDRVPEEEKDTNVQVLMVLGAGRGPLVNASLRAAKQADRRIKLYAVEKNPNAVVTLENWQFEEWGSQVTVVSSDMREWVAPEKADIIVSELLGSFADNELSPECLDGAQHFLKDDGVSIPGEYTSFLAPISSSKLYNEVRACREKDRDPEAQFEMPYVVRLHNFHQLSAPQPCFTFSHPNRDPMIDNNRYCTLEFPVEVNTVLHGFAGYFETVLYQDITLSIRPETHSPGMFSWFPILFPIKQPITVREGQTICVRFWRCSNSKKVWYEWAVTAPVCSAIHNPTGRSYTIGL
T1 sequence (Q9BQA1 whole entry partner): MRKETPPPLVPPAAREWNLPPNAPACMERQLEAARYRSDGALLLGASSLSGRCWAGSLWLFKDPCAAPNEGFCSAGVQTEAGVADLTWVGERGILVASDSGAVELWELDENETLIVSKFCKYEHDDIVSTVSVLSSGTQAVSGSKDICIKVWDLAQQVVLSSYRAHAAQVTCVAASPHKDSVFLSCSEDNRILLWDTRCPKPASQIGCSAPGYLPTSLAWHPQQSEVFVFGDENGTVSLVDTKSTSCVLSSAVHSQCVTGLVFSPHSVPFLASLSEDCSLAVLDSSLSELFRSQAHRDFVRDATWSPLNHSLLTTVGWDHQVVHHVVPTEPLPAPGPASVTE

| SMILES | IC50 [1, 7] [nM] | MTAP intact/deleted ratio [1, 8] | IC50 (PRMT5 [2]) [nM] | IC50 [3, 9] [nM] | IC50 (PRMT5 [4]; [10]) [nM] | IC50 (PRMT5 [5]) [nM] | IC50 [6] [nM] | IC50 [1, 11] [nM] | IC50 (PRMT5 [4]; read-out: No Cofactor/rel IC50) [nM] | MTAP intact/deleted ratio [1, 12] | IC50 [3, 13] [nM] | IC50 [3, 14] [nM] | IC50 [3, 15] [nM] |
| --- | --- | --- | --- | --- | --- | --- | --- | --- | --- | --- | --- | --- | --- |
| C[C@H]1CC[C@@H](C2CCCCC2)N(C(=O)C(=O)Nc2cncc(C(N)=O)c2)C1 (single isomer, unassigned) [Compound 121] | < 100 | A (an IC50 ratio greater than or equal to 10 fold) | 50 to 500 | 1000 to 10000 | 50 to 500 | < 50 | > 1000 |  |  |  |  |  |  |
| C[C@@H]1CC[C@@H](c2ccc3nccn3c2)N(C(=O)C(=O)Nc2cncc(C(N)=O)c2)C1 (racemic) [Compound 234, rac-5-{2-[(2R,5S)-2-{Imidazo[1,2-a]pyridin-6-yl}-5-methylpiperidin-1-yl]-2-oxoacetamido}pyridine-3-carboxamide] |  | C (an IC50 ratio of less than 3 fold) | 50 to 500 | > 10000 |  | 50 to 500 | > 1000 | > 1000 | 50 to 500 |  |  |  |  |
| COc1ccc([C@@H]2CC[C@@H](C)CN2C(=O)C(=O)Nc2cncc(C(N)=O)c2)cc1OC (racemic) [Compound 230, rac-5-{2-[(2R,5S)-2-(3,4-Dimethoxyphenyl)-5-methylpiperidin-1-yl]-2-oxoacetamido}pyridine-3-carboxamide] |  | A (an IC50 ratio greater than or equal to 10 fold) | 50 to 500 | 1000 to 10000 |  | < 50 | > 1000 | 100 to 1000 | 50 to 500 |  |  |  |  |
| CCc1cc(NC(=O)C(=O)N2C[C@@H](C)CC[C@@H]2c2ccc3sc(C4(CN(C)C)COC4)nc3c2)cnc1N [Compound 1165, N-(6-amino-5-ethylpyridin-3-yl)-2-((2R,5S)-2-(2-(3-((dimethylamino)methyl)oxetan-3-yl)benzo[d]thiazol-5-yl)-5-methylpiperidin-1-yl)-2-oxoacetamide] |  |  | 50 to 500 | < 1000 |  | < 50 | < 100 | < 100 | < 50 | B (an IC50 ratio greater than or equal to 3 fold but lower than 10 fold) |  |  |  |
| C[C@@H]1CC[C@@H](c2ccc(Cl)cc2)N(C(=O)C(=O)Nc2cncc(C(N)=O)c2)C1 (single isomer, unassigned) [Compound 570] | < 100 | A (an IC50 ratio greater than or equal to 10 fold) | 50 to 500 |  |  | < 50 | > 1000 |  | 50 to 500 |  | 1000 to 10000 |  |  |
| Cc1cc(NC(=O)C(=O)N2C[C@@H](C)CC[C@@H]2c2ccc3snc(C)c3c2)cnc1N (single isomer, unassigned) [Compound 1166] |  |  | 50 to 500 | < 1000 |  | < 50 | < 100 | < 100 | < 50 | B (an IC50 ratio greater than or equal to 3 fold but lower than 10 fold) |  |  |  |
| CCc1cc(NC(=O)C(=O)N2C[C@@H](C)CC[C@@H]2c2ccc3sc(C45CC(N(C)C)(C4)C5)nc3c2)cnc1N [Compound 1404, N-(6-amino-5-ethylpyridin-3-yl)-2-((2R,5S)-2-(2-(3-(dimethylamino)bicyclo[1.1.1]pentan-1-yl)benzo[d]thiazol-5-yl)-5-methylpiperidin-1-yl)-2-oxoacetamide] | < 100 | A (an IC50 ratio greater than or equal to 10 fold) | < 50 |  | < 50 | < 50 | < 100 |  |  |  |  | < 1000 |  |
| CC1Cc2cc([C@@H]3CC[C@@H](C)CN3C(=O)C(=O)Nc3cncc(C(N)=O)c3)ccc2O1 (mixture of isomers) [Compound 151, rac-5-{2-[(2R,5S)-5-Methyl-2-(2-methyl-2,3-dihydro-1-benzofuran-5-yl)piperidin-1-yl]-2-oxoacetamido}pyridine-3-carboxamide] | < 100 | A (an IC50 ratio greater than or equal to 10 fold) | 50 to 500 | 1000 to 10000 | 50 to 500 | < 50 | > 1000 |  |  |  |  |  |  |
| Cc1cc(NC(=O)C(=O)N2C[C@H](C)CC[C@H]2c2cccc3c2CCN3)cnc1N (single isomer, unassigned) [Compound 962] | 100 to 1000 | A (an IC50 ratio greater than or equal to 10 fold) | 50 to 500 | 1000 to 10000 |  | < 50 | > 1000 |  | 50 to 500 |  |  |  |  |
| Cc1cc(NC(=O)C(=O)N2C[C@H](C)CC[C@H]2c2cc(F)c(F)c(F)c2)cnc1N (single isomer, unassigned) [Compound 478] |  | A (an IC50 ratio greater than or equal to 10 fold) | 50 to 500 | 1000 to 10000 |  | < 50 | > 1000 | 100 to 1000 | 50 to 500 |  |  |  |  |
| Cc1cc(NC(=O)C(=O)N2C[C@@H](C)CC[C@@H]2c2ccc3sccc3c2)cnc1N (single isomer, unassigned) [Compound 634] | < 100 | A (an IC50 ratio greater than or equal to 10 fold) | < 50 |  |  | < 50 | 100 to 1000 |  | < 50 |  | < 1000 |  |  |
| Cc1cncc(NC(=O)C(=O)N2C[C@H](C)CC[C@H]2c2cccs2)c1 (single isomer, unassigned) [Compound 68] | 100 to 1000 | A (an IC50 ratio greater than or equal to 10 fold) | 50 to 500 | > 10000 | 50 to 500 | < 50 | > 1000 |  |  |  |  |  |  |
| CNS(=O)(=O)c1ccc([C@@H]2CC[C@@H](C)CN2C(=O)C(=O)Nc2cnc(N)c(C)c2)cc1 (racemic) [Compound 668, N-(6-amino-5-methyl-3-pyridyl)-2-[(2S,5R)-5-methyl-2-[4-(methylsulfamoyl)phenyl]-1-piperidyl]-2-oxo-acetamide] | 100 to 1000 | B (an IC50 ratio greater than or equal to 3 fold but lower than 10 fold) | 50 to 500 |  |  | < 50 | 100 to 1000 |  | 50 to 500 |  | 1000 to 10000 |  |  |
| CCN1CCC(c2nc3cc([C@H]4CC[C@H](C)CN4C(=O)C(=O)Nc4cnc(N)c(C)c4)ccc3s2)CC1 [Compound 1335, N-(6-amino-5-methylpyridin-3-yl)-2-((2R,5S)-2-(2-(1-ethylpiperidin-4-yl)benzo[d]thiazol-5-yl)-5-methylpiperidin-1-yl)-2-oxoacetamide] | < 100 | A (an IC50 ratio greater than or equal to 10 fold) | < 50 |  | < 50 | < 50 | < 100 |  |  |  |  | < 1000 |  |
| COc1ccc([C@@H]2CC[C@@H](C)CN2C(=O)C(=O)Nc2cncc(C(N)=O)c2)cc1 (racemic) [Compound 228, rac-5-{2-[(2R,5S)-2-(4-Methoxyphenyl)-5-methylpiperidin-1-yl]-2-oxoacetamido}pyridine-3-carboxamide] |  | A (an IC50 ratio greater than or equal to 10 fold) | 50 to 500 | 1000 to 10000 |  | 50 to 500 | > 1000 | 100 to 1000 | 50 to 500 |  |  |  |  |
| CC(=O)N1CCC([C@@H]2CC[C@@H](C)CN2C(=O)C(=O)Nc2cnc(N)c(C)c2)CC1 (racemic) [Compound 737, 2-[(2R,5S)-2-(1-acetyl-4-piperidyl)-5-methyl-1-piperidyl]-N-(6-amino-5-methyl-3-pyridyl)-2-oxo-acetamide] |  | B (an IC50 ratio greater than or equal to 3 fold but lower than 10 fold) | > 500 |  |  | 50 to 500 | > 1000 | > 1000 | 50 to 500 |  |  |  | > 10000 |
| Cc1cc(NC(=O)C(=O)N2C[C@@H](C)CC[C@@H]2c2ccc3[nH]ncc3n2)cnc1N (single isomer, unassigned) [Compound 780] |  | A (an IC50 ratio greater than or equal to 10 fold) | > 500 |  |  | > 500 | > 1000 | 100 to 1000 | > 500 |  |  |  | > 10000 |
| Cc1cc([C@H]2CC[C@H](C)CN2C(=O)C(=O)Nc2cnc(N)c(C)c2)ccn1 (single isomer, unassigned) [Compound 593] | > 1000 | B (an IC50 ratio greater than or equal to 3 fold but lower than 10 fold) | > 500 |  |  | > 500 | > 1000 |  | > 500 |  | > 10000 |  |  |
